pEC50: −log10 of the molar value.
Tests used:
Assay in all cases: microbe, parasite or virus in culture
Format in all cases: cell-based
VEEV TC83 = conditions: Venezuelan equine encephalitis virus, Vero 76, 48 h, read-out: VEEV TC83 EC50 nM
WEEV California = conditions: Western equine encephalitis virus, Vero 76, 48 h, read-out: WEEV California EC50 nM
EEEV FL93-939 = conditions: Eastern equine encephalitis virus, Vero 76, 48 h, read-out: EEEV FL93-939 EC50
EEEV BeAr 436087 = conditions: Eastern equine encephalitis virus, Vero 76, 48 h, read-out: EEEV BeAr 436087 EC50 nM

SMILES	EC50 (VEEV TC83)	EC50 (WEEV California)	pEC50 (EEEV FL93-939)	EC50 (EEEV BeAr 436087)
COc1ccc(-n2c([C@H]3CCCN3C)nc3ccc([N+](=O)[O-])cc3c2=O)cc1 [Example 10, (R)-3-(4-methoxyphenyl)-2-(1-methylpyrrolidin-2-yl)-6-nitroquinazolin-4 (3H)-one]	1 to 50 nM	151 to 500 nM	6.30 to 6.82	51 to 150 nM
COc1ccc(-n2c([C@H]3CCNC3)nc3ccc([N+](=O)[O-])cc3c2=O)cc1 [Example 18, (S)-3-(4-methoxyphenyl)-6-nitro-2-(pyrrolidin-3-yl) quinazolin-4 (3H)-one]	1 to 50 nM	151 to 500 nM	6.30 to 6.82	51 to 150 nM
COc1ccc(-n2c([C@H]3CCCN3C)nc3c(C)cc([N+](=O)[O-])cc3c2=O)cc1 [Example 57, (R)-3-(4-methoxyphenyl)-8-methyl-2-(1-methylpyrrolidin-2-yl)-6-nitroquinazolin-4 (3H)-one]	51 to 150 nM	151 to 500 nM	6.82 to 7.29	51 to 150 nM
COc1c(F)cc(-n2c(C3CCCNC3)nc3c(-c4ccc(C)nc4)cc(C#N)cc3c2=O)cc1F (centres unmarked) [Example 189, 3-(3,5-difluoro-4-methoxyphenyl)-8-(6-methylpyridin-3-yl)-4-oxo-2-(piperidin-3-yl)-3,4-dihydroquinazoline-6-carbonitrile]	51 to 150 nM	51 to 150 nM		
COc1c(F)cc(-n2c(C3CCCN3)nc3c(C#CC(C)(C)O)cc(C#N)cc3c2=O)cc1F (centres unmarked) [Example 193, 3-(3,5-Difluoro-4-methoxyphenyl)-8-(3-hydroxy-3-methylbut-1-yn-1-yl)-4-oxo-2-(pyrrolidin-2-yl)-3,4-dihydroquinazoline-6-carbonitrile]	51 to 150 nM	51 to 150 nM		
COc1ccc(-n2c(C3CCCN3)nc3c(C#Cc4ccc(C)nc4)cc(C#N)cc3c2=O)cc1F (centres unmarked) [Example 194, 3-(3-Fluoro-4-methoxyphenyl)-8-((6-methylpyridin-3-yl)ethynyl)-4-oxo-2-(pyrrolidin-2-yl)-3,4-dihydroquinazoline-6-carbonitrile]	51 to 150 nM	51 to 150 nM		
COc1ccc(-n2c(C3CCCN3)nc3c(CCc4ccc(C)nc4)cc(C#N)cc3c2=O)cc1F (centres unmarked) [Example 195, 3-(3-Fluoro-4-methoxyphenyl)-8-(2-(6-methylpyridin-3-yl)ethyl)-4-oxo-2-(pyrrolidin-2-yl)-3,4-dihydroquinazoline-6-carbonitrile]	51 to 150 nM	51 to 150 nM		
COc1ccc(-n2c(-c3ccccn3)nc3c(-c4ccc(C)nc4)cc(C#N)cc3c2=O)cc1F [Example 196, 3-(3-fluoro-4-methoxyphenyl)-8-(6-methylpyridin-3-yl)-4-oxo-2-(pyridin-2-yl)-3,4-dihydroquinazoline-6-carbonitrile]	> 1000 nM	> 1000 nM		
COc1ccc(-n2c(-c3cocn3)nc3c(-c4ccc(C)nc4)cc(C#N)cc3c2=O)cc1F [Example 197, 3-(3-fluoro-4-methoxyphenyl)-8-(6-methylpyridin-3-yl)-2-(oxazol-4-yl)-4-oxo-3,4-dihydroquinazoline-6-carbonitrile]	501 to 1000 nM	> 1000 nM		
COc1ccc(-n2c(-c3cnco3)nc3c(-c4ccc(C)nc4)cc(C#N)cc3c2=O)cc1F [Example 198, 3-(3-fluoro-4-methoxyphenyl)-8-(6-methylpyridin-3-yl)-2-(oxazol-5-yl)-4-oxo-3,4-dihydroquinazoline-6-carbonitrile]	> 1000 nM	> 1000 nM		
COc1ccc(-n2c(-c3ccon3)nc3c(-c4ccc(C)nc4)cc(C#N)cc3c2=O)cc1F [Example 199, 3-(3-fluoro-4-methoxyphenyl)-2-(isoxazol-3-yl)-8-(6-methylpyridin-3-yl)-4-oxo-3,4-dihydroquinazoline-6-carbonitrile]	501 to 1000 nM	> 1000 nM		
COc1ccc(-n2c(-c3cn(C)cn3)nc3c(-c4ccc(C)nc4)cc(C#N)cc3c2=O)cc1F [Example 200, 3-(3-fluoro-4-methoxyphenyl)-2-(1-methyl-1H-imidazol-4-yl)-8-(6-methylpyridin-3-yl)-4-oxo-3,4-dihydroquinazoline-6-carbonitrile]	> 1000 nM	> 1000 nM		
COc1ccc(-n2c(-c3cncn3C)nc3c(-c4ccc(C)nc4)cc(C#N)cc3c2=O)cc1F [Example 201, 3-(3-fluoro-4-methoxyphenyl)-2-(1-methyl-1H-imidazol-5-yl)-8-(6-methylpyridin-3-yl)-4-oxo-3,4-dihydroquinazoline-6-carbonitrile]	> 1000 nM	> 1000 nM		
COc1ccc(-n2c(-c3ncco3)nc3c(-c4ccc(C)nc4)cc(C#N)cc3c2=O)cc1F [Example 202, 3-(3-fluoro-4-methoxyphenyl)-8-(6-methylpyridin-3-yl)-2-(oxazol-2-yl)-4-oxo-3,4-dihydroquinazoline-6-carbonitrile]	> 1000 nM	> 1000 nM		
COc1ccc(-n2c(-c3nccn3C)nc3c(-c4ccc(C)nc4)cc(C#N)cc3c2=O)cc1F [Example 203, 3-(3-fluoro-4-methoxyphenyl)-2-(1-methyl-1H-imidazol-2-yl)-8-(6-methylpyridin-3-yl)-4-oxo-3,4-dihydroquinazoline-6-carbonitrile]	51 to 150 nM	151 to 500 nM		
COc1ccc(-n2c(C3CCCN3Cc3ccc(F)cc3)nc3c(C)cc([N+](=O)[O-])cc3c2=O)cc1F (centres unmarked) [Example 204, 3-(3-fluoro-4-methoxyphenyl)-2-(1-(4-fluorobenzyl)pyrrolidin-2-yl)-8-methyl-6-nitroquinazolin-4 (3H)-one]	51 to 150 nM	151 to 500 nM		
CNC(C)c1nc2ccc([N+](=O)[O-])cc2c(=O)n1-c1ccc(OC)cc1 (centres unmarked) [Example 205, 3-(4-methoxyphenyl)-2-(1-(methylamino)ethyl)-6-nitroquinazolin-4 (3H)-one]	51 to 150 nM	51 to 150 nM		
CN[C@@H](C)c1nc2ccc([N+](=O)[O-])cc2c(=O)n1-c1ccc(OC)cc1 [Example 206, (S)-3-(4-methoxyphenyl)-2-(1-(methylamino)ethyl)-6-nitroquinazolin-4 (3H)-one]	51 to 150 nM	151 to 500 nM		
CN[C@H](C)c1nc2ccc([N+](=O)[O-])cc2c(=O)n1-c1ccc(OC)cc1 [Example 207, (R)-3-(4-methoxyphenyl)-2-(1-(methylamino)ethyl)-6-nitroquinazolin-4 (3H)-one]	51 to 150 nM	151 to 500 nM		
COc1ccc(-n2c([C@H](C)N(C)C)nc3ccc([N+](=O)[O-])cc3c2=O)cc1 [Example 208, (S)-2-(1-(dimethylamino)ethyl)-3-(4-methoxyphenyl)-6-nitroquinazolin-4 (3H)-one]	51 to 150 nM	51 to 150 nM		
COc1ccc(-n2c([C@@H](C)N(C)C)nc3ccc([N+](=O)[O-])cc3c2=O)cc1 [Example 209, (R)-2-(1-(dimethylamino)ethyl)-3-(4-methoxyphenyl)-6-nitroquinazolin-4 (3H)-one]	51 to 150 nM	151 to 500 nM		
CNCc1nc2ccc([N+](=O)[O-])cc2c(=O)n1-c1ccc(OC)cc1 [Example 210, 3-(4-methoxyphenyl)-2-((methylamino)methyl)-6-nitroquinazolin-4 (3H)-one]	> 1000 nM	> 1000 nM		

— patent US20220348558A1, “INHIBITORS OF ENCEPHALITIC ALPHAVIRUSES” (priority 2019, published 2022)
